Measured values from patent publication US4447439A, “2-Cyclic amino-2-(1,2-benzisoxazol-3-yl)acetic acid ester derivatives, process for the preparation thereof and composition containing the same” (priority 1981, dated 1984).
Converted amounts (≈) assume the structure as drawn. Counter-ions that a name gives are not always drawn. Like-named read-outs stand apart in the source and are kept apart here. Each block holds one compound with its values, some of them ahead of it.

How the values were obtained:
Mydriatic activity = conditions: rat, in vivo, po
Description: (§3) This activity was examined according to the method of P. Pelewka [cf.

[1] = system: spontaneous gastric motility; assay: Inhibitory effect on spontaneous gastric motility (Anti-SGM); set-up: species or system male Wistar strain rats; conditions: Rattus norvegicus; conscious rats, fasted 18 hours, oral; read-out: ID50 Anti-SGM (antispasmodic activity in vivo)
Protocol: (2) Inhibitory effect on spontaneous gastric motility (Anti-SGM)
(§1) This effect was examined using male Wistar strain rats, weighing about 250 g, with chronically implanted strain gauge force transducer as mentioned in the experiment (1). The rats were usually allowed to stand for 3-5 days for recovery from the surgery and fasted for 18 hours before experiment. Then, spontaneous gastric motility in conscious rats were recorded and the sum of amplitude of each contraction was calculated every 15 minutes. Inhibitory effect of test compound by oral administration was expressed as a percent inhibition of initial spontaneous motility.

[2] = system: stomach (contractile response induced by carbachol); assay: Inhibitor effect on contractile response induced by carbachol (Anti-Car); set-up: species or system male Wistar strain rats; conditions: Rattus norvegicus, iv; anesthetized rats, carbachol 10 μg/kg, i.v.; read-out: ID50 Anti-Car (antispasmodic activity in vivo)
Protocol: (1) Inhibitor effect on contractile response induced by carbachol (Anti-Car)
This effect was examined using the strain gauge force transducer as described by X. B. Pascaud et al. [cf. Am. […] The transducer was sutured on the serosa of the stomach in anesthetized male Wistar strain rats, weighing about 250 g. This transducer can record simultaneously contractions and tone variation of the muscle. The contractile response induced by carbachol (10 μg/kg, i.v.) was estimated before and after administration of test compound. Inhibitory effect of test compound was expressed as a percent inhibition of the response.

[3] = system: section of the ileum (contractile response induced by transmural stimulation); assay: Inhibitory effect on contractile response induced by transmural stimulation (Anti-TMS); assay type: cell-based, male Hartley strain guinea pig; conditions: guinea pig ileum, transmural stimulation 5 Hz, 20-30 V, compound applied 20 minutes before; for IC50: Cavia porcellus, read-out: IC50 Anti-TMS (antispasmodic activity in vitro)
Protocol: (1) Inhibitory effect on contractile response induced by transmural stimulation (Anti-TMS)
From male Hartley strain guinea pig, weighing 300-350 g, section of the ileum about 3 cm in length was prepared and mounted in Tyrode's solution kept at 35° C. and oxygenated with 95% O2 --5% CO2, and responses of the ileum were recorded isotonically with an initial tension of 1 g. The ileum was stimulated electrically by the method of W. D. M. Paton [cf. […] The electrode was made of platinum and the intraluminal electrode was used at a frequency of 5 Hz and at a voltage sufficient to give a maximal response (20-30 V). Test compounds were applied 20 minutes before the stimulation.
(§2) In the experiments (1) and (2), each compound was tested in three different concentrations.

[4] = system: section of the ileum (contractile response induced by acetylcholine); assay: Inhibitor effect on contractile response induced by acetylcholine (Anti-ACh); assay type: cell-based, male Hartley strain guinea pig; conditions: guinea pig ileum, acetylcholine 2×10^-8 g/ml, compound applied 2 minutes before; for IC50: Cavia porcellus, read-out: IC50 Anti-ACh (antispasmodic activity in vitro)
Protocol: (2) Inhibitor effect on contractile response induced by acetylcholine (Anti-ACh)
In the same manner as described in the above experiment (1), ileum preparation was prepared and mounted in Tyrode's solution. The response of the ileum to acetylcholine (2×10^-8 g/ml) were recorded isotonically. Test compounds were applied 2 minutes before adding the acetylcholine.
as §2

[5] = Safety index (ED50 of mydriatic activity / ID50 of Anti-SGM); set-up: species or system male Wistar strain rats; conditions: rat, in vivo, po
Protocol: as §1, with “motility. ID50 value, i.e., the dose required for 50% inhibition of spontaneous motility, was determined from regression line calculated by the maximum percent inhibition at each dose level.” for “motility.”

Acute lethal toxicity = assay: Acute lethal toxicity; set-up: species or system male and female Jcl:SD strain rats; conditions: rat, in vivo, po, single oral, 7 days
in vivo = conditions: rat, po
Description: as §3

Compound: CN1[C@@H]2CC[C@H]1C[C@@H](OC(=O)C(CO)c1ccccc1)C2 (stereo partly shown) [Atropine sulfate, atropine sulfate, reference compound]
ED50 (Mydriatic activity): 3.5 mg/kg
ED50 [1]: 1.7 mg/kg
ED50 [2]: 0.0084 mg/kg
IC50 [3]: 0.035 µg/mL
IC50 [4]: 0.005 µg/mL

Compound: CN1CCCC(OC(=O)C(c2noc3ccccc23)N2CCCCCC2)C1 (stereo not shown) [Example 8]
IC50 [3]: 0.11 µg/mL (≈ 0.296 µM)
IC50 [4]: 0.039 µg/mL (≈ 0.105 µM)

Compound: CC[N+]1(C)CCC(OC(=O)C(c2noc3ccccc23)N2CCCCCC2)CC1.[I-] (stereo not shown) [Example 17(i), 1-ethyl-1-methyl-4-[2-hexamethyleneimino-2-(1,2-benzisoxazol-3-yl)acetoxy]piperidinium iodide]
ED50 (Mydriatic activity): > 3000 mg/kg
selectivity ratio ([5]; ED50 of mydriatic activity divided by ID50 of Anti-SGM, read-out: Safety index): > 114
LD50 at 168 h (Acute lethal toxicity; female rats): 6320 mg/kg
LD50 at 168 h (Acute lethal toxicity; male rats): 5430 mg/kg
ED50 [1]: 26.3 mg/kg
ED50 [2]: 0.0187 mg/kg
IC50 [3]: 0.14 µg/mL

Compound: C[N+]1(C)CCC(OC(=O)C(c2noc3ccccc23)N2CCCCCC2)CC1.[I-] (stereo not shown) [Example 20, 1,1-dimethyl-4-[2-hexamethyleneimino-2-(1,2-benzisoxazol-3-yl)acetoxy]piperidinium iodide]
IC50 [3]: 0.12 µg/mL
IC50 [4]: 0.02 µg/mL

Compound: C[N+]1(C)CCC(OC(=O)C(c2noc3ccccc23)N2CCCCC2)CC1.[I-] (stereo not shown) [Example 21, 1,1-Dimethyl-4-[2-piperidino-2-(1,2-benzisoxazol-3-yl)acetoxy]piperidinium iodide]
IC50 [3]: 0.09 µg/mL
IC50 [4]: 0.032 µg/mL

Compound: CC[N+]1(C)CCCC(OC(=O)C(c2noc3ccccc23)N2CCCCCC2)C1 (stereo not shown) [Example 22]
IC50 [3]: 0.096 µg/mL
IC50 [4]: 0.022 µg/mL

Compound: CC1CCCN(C(C(=O)OC2CC[N+](C)(C)CC2)c2noc3ccccc23)C1 (stereo not shown) [Example 23]
IC50 [3]: 0.074 µg/mL
IC50 [4]: 0.036 µg/mL

Compound: C[N+]1(C)CCCC(OC(=O)C(c2noc3ccccc23)N2CCCCCC2)C1 (stereo not shown) [Example 24]
IC50 [3]: 0.1 µg/mL
IC50 [4]: 0.036 µg/mL

Compound: C[N+]1(C)CCC(OC(=O)C(c2noc3ccccc23)N2CCCCCCC2)CC1 (stereo not shown) [Example 27]
IC50 [3]: 0.088 µg/mL
IC50 [4]: 0.014 µg/mL

Compound: CC[N+]1(C)CCC(OC(=O)C(c2noc3ccccc23)N2CCCCCC2)CC1 (stereo not shown) [Example 30]
IC50 [3]: 0.18 µg/mL
IC50 [4]: 0.064 µg/mL

Compound: CC[N+]1(C)CCC(OC(=O)C(c2noc3ccccc23)N2CCCCCC2)CC1 (stereo not shown) [Example 31]
IC50 Anti-TMS (antispasmodic activity in vitro) [3]: 0.12 µg/mL
IC50 Anti-ACh (antispasmodic activity in vitro) [4]: 0.055 µg/mL

Compound: CC[N+]1(C)CCC(OC(=O)C(c2noc3ccccc23)N2CCCC2)CC1 (stereo not shown) [Example 33]
IC50 [3]: 0.18 µg/mL
IC50 [4]: 0.032 µg/mL

Compound: CC[N+]1(C)CCC(OC(=O)C(c2noc3ccccc23)N2CCCCC2)CC1 (stereo not shown) [Example 34]
IC50 ([3]; 20 min): 0.044 µg/mL
IC50 [4]: 0.033 µg/mL

Compound: C[N+]1(C)CCC(OC(=O)C(c2noc3ccc(Cl)cc23)N2CCCCCC2)CC1 (stereo not shown) [Example 42]
IC50 [3]: 0.34 µg/mL
IC50 [4]: 0.078 µg/mL

Compound: C[N+]1(C)CCC(OC(=O)C(c2noc3ccc(F)cc23)N2CCCCCC2)CC1 (stereo not shown) [Example 44]
IC50 [3]: 0.29 µg/mL
IC50 [4]: 0.08 µg/mL

Compound: CCCC[N+]1(C)C2CC(OC(=O)C(CO)c3ccccc3)CC1C1OC12 (stereo not shown) [Scopolamine-N-butyl bromide, scopolamine-N-butyl bromide, reference compound]
ED50 (in vivo): 227 mg/kg
selectivity ratio [5]: 2
ED50 [1]: 100 mg/kg
ED50 [2]: 0.0201 mg/kg
IC50 [3]: 0.44 µg/mL
IC50 [4]: 0.089 µg/mL

Continued, values first:

IC50 [3]: 0.11 µg/mL (≈ 0.285 µM)
IC50 [4]: 0.042 µg/mL (≈ 0.109 µM)
Compound: CCN1CCCC(OC(=O)C(c2noc3ccccc23)N2CCCCCC2)C1 (stereo not shown) [Example 3]

IC50 [3]: 0.034 µg/mL (≈ 0.0915 µM)
IC50 [4]: 0.023 µg/mL (≈ 0.0619 µM)
Compound: CN1CCC(OC(=O)C(c2noc3ccccc23)N2CCCCCC2)CC1 (stereo not shown) [Example 16, 1-methyl-4-piperidyl 2-hexamethyleneimino-2-(1,2-benzisoxazol-3-yl)acetate]

IC50 Anti-TMS (antispasmodic activity in vitro) [3]: 0.1 µg/mL
IC50 Anti-ACh (antispasmodic activity in vitro) [4]: 0.013 µg/mL
Compound: C[N+]1(C)CCC(OC(=O)C(c2noc3ccccc23)N2CCCCCC2)CC1 (stereo not shown) [Example 28]

IC50 [3]: 0.11 µg/mL
IC50 [4]: 0.029 µg/mL
Compound: C[N+]1(C)CCC(OC(=O)C(c2noc3ccccc23)N2CCCCC2)CC1 (stereo not shown) [Example 36]

IC50 [3]: 0.24 µg/mL
IC50 [4]: 0.072 µg/mL
Compound: CC1CCN(C(C(=O)OC2CC[N+](C)(C)CC2)c2noc3ccccc23)CC1 (stereo not shown) [Example 37]

IC50 Anti-TMS (antispasmodic activity in vitro) [3]: 0.027 µg/mL
IC50 [4]: 0.024 µg/mL
Compound: C[N+]1(C)CCC(OC(=O)C(c2noc3ccccc23)N2CCCCCC2)CC1 (stereo not shown) [Example 38]

IC50 [3]: 0.058 µg/mL
IC50 [4]: 0.051 µg/mL
Compound: C[N+]1(C)CCC(OC(=O)C(c2noc3ccccc23)N2CCCC2)CC1 (stereo not shown) [Example 39]
